Measured values reported in patent US20250002608A1, “TREATMENT OF PAIN” (UTI Limited Partnership, priority 2021, published 2025).

What was measured:
ALK [1] = conditions: human, in vivo; cited from earlier work
[2] = tested on: small (<20 μm) DRG neurons; assay: Neurite outgrowth of DRG neurons co-cultured with ALKAL2-transfected HEK cells; format: cell-based, mouse
Source text: Previous work has shown that the ALK receptor plays a central role in the development of neural-crest derived cells and neurite outgrowth (18, 19, 37, 38). Using a co-culture system, we tested whether secreted ALKAL2 is able to activate ALK on DRG neurons, thus promoting neurite outgrowth through an autocrine/paracrine signaling process. In this assay, HEK cell monolayers seeded in the upper chamber of a transwell were transfected with ALKAL2, and then placed above acutely dissociated DRG neurons seeded into the lower chamber (FIG. 4A). DRG neurons were exposed to HEK-secreted ALKAL2 for a further 16 hours, after which, neurite growth was assessed on small and medium size neurons (FIG. 4A).
DRG neurons were harvested from adult mice and enzymatically dissociated in Hank's balanced salt solution (HBSS) containing 2 mg/ml collagenase type I and 4 mg/ml dispase (Invitrogen) for 45 min at 37° C. DRGs were rinsed twice in HBSS and once in Neurobasal A culture medium (Thermo Fisher Scientific) supplemented with 2% B-27, 10% heat-inactivated fetal bovine serum (HI-FBS), 100 μg/ml streptomycin, 100 U/ml penicillin, 100 ng/ml of Nerve Growth Factor (NGF) and 100 ng/ml glial cell-derived neurotrophic factor (GDNF) (all from Invitrogen). Individual neurons were dispersed by trituration through a fire-polished glass Pasteur pipette in 4 ml media and cultured overnight at 37° C. with 5% CO2 in 96% humidity on glass coverslips previously treated with 25% Poly-Ornithine and Laminin (both from Sigma).
For co-culture experiments, human embryonic kidney (HEK) 293 tsA-201 cells were grown to 80% confluence at 37° C. (5% CO2) in Dulbecco's modified Eagle's medium (+10% fetal bovine serum, 200 units/ml penicillin and 0.2 mg/ml streptomycin (Invitrogen, Carlsbad, CA, USA)) in the transwell of a 12-well cell culture plate (Gibco). Cells were transfected with 0.5 or 1 μg of ALKAL2 plasmid (Genomics, ABIN3292379) using the calcium phosphate method and washed 12 hours after transfection. After another 8 hours, isolated DRG neurons plated on glass coverslips were placed in the bottom chamber of the 12-well plate and the media was changed to Neurobasal A culture medium (see above). Electrophysiological recordings or immunohistochemistry were conducted 24 hours later.
For the neurite outgrowth assay, cultured DRG neurons were either treated with increasing concentrations ([…], 1 nM, 10 nM, 100 nM and 1 μM) of recombinant mouse ALKAL2 (MyBioSource LLC, MBS14253) or co-cultured with ALKAL2 expressing HEK cells (see above) in Neurobasal A medium. After 24 h, the cells were washed twice with HBSS, fixed in 4% PFA for 15 min., incubated in blocking solution (PBS+1% BSA) for 30 min. and then immunostained with anti-β-tubulin III antibody (rabbit, 1/1000, Sigma-Aldrich) overnight at 4° C. Cells were washed in PBS twice then incubated with a goat-anti rabbit IgG conjugated to Alexa Fluor 488 (1/2000, Invitrogen) for 1 h. After several washes, coverslips were mounted on slides and confocal images acquired. Alexa-488 antibody was visualized by excitation with an argon laser […] and emission detected using a long-pass 530 nm filter. Alexa-555 antibody was visualized by excitation at 543 nm with a HeNe laser, and emission detected using a 585-615 nm band-pass filter.

small DRG neurons = assay: Excitability of small DRG neurons exposed to ALKAL2 (current clamp); format: cell-based, mouse; conditions: for resting membrane potential (RMP): small DRG neurons, n=13
Method: DRG neurons were harvested from adult mice and enzymatically dissociated in Hank's balanced salt solution (HBSS) containing 2 mg/ml collagenase type I and 4 mg/ml dispase (Invitrogen) for 45 min at 37° C. […] Electrophysiological recordings were conducted using an external solution containing (in mM): 140.0 NaCl, 1.5 CaCl2, 2.0 MgCl2, 5.0 KCl, 10.0 HEPES, 10.0 D-glucose, pH 7.4 adjusted with NaOH, on the stage of an inverted epi-fluorescence microscope (Olympus IX51). DRG neuron were recorded based on size, knowing that TRPV1 is expressed in small neurons […], and pHluorin fluorescent signal. Action potentials were recorded using current clamp. Borosilicate glass (Harvard Apparatus Ltd.) pipettes were pulled and polished to 2-5 MQ resistance with a DMZ-Universal Puller (Zeitz-Instruments GmbH.) and filled with an internal solution containing (in mM): 140.0 KCl, 5.00 NaCl, 1 CaCl2, 1.0 EGTA, 10.0 HEPES, 1.0 MgCl2, 3.0 ATP Na2, pH 7.3 adjusted with KOH. All solutions were prepared and used at room temperature (22±2° C.) and their osmolarity adjusted to 310 mOsm. […] Recordings were performed using an Axopatch 200B amplifier (Axon Instruments, Foster City, CA, USA). Current-clamp protocols were applied using pClamp 10.4 software (Axon Instruments). […] Average DRG neuron capacitance was 12.45±0.85 pF. […] For prolonged ALKAL2 treatment, neurons were incubated with a low concentration of 10 nM for 16 hours.

[3] = tested on: DRG neurons from TRPV1-pHluorin mice; assay: Current-clamp recording of DRG neurons from TRPV1-pHluorin mice exposed to capsaicin; format: cell-based, mouse; conditions: capsaicin 100 nM
Method: (§1) DRG neurons were harvested from adult mice and enzymatically dissociated in Hank's balanced salt solution (HBSS) containing 2 mg/ml collagenase type I and 4 mg/ml dispase (Invitrogen) for 45 min at 37° C. […] Electrophysiological recordings were conducted using an external solution containing (in mM): 140.0 NaCl, 1.5 CaCl2, 2.0 MgCl2, 5.0 KCl, 10.0 HEPES, 10.0 D-glucose, pH 7.4 adjusted with NaOH, on the stage of an inverted epi-fluorescence microscope (Olympus IX51). DRG neuron were recorded based on size, knowing that TRPV1 is expressed in small neurons […], and pHluorin fluorescent signal. Action potentials were recorded using current clamp. Borosilicate glass (Harvard Apparatus Ltd.) pipettes were pulled and polished to 2-5 MQ resistance with a DMZ-Universal Puller (Zeitz-Instruments GmbH.) and filled with an internal solution containing (in mM): 140.0 KCl, 5.00 NaCl, 1 CaCl2, 1.0 EGTA, 10.0 HEPES, 1.0 MgCl2, 3.0 ATP Na2, pH 7.3 adjusted with KOH. All solutions were prepared and used at room temperature (22±2° C.) and their osmolarity adjusted to 310 mOsm. […] Recordings were performed using an Axopatch 200B amplifier (Axon Instruments, Foster City, CA, USA). Current-clamp protocols were applied using pClamp 10.4 software (Axon Instruments). […] Average DRG neuron capacitance was 12.45±0.85 pF. […]

TRPV1-pHluorin [4] = assay: Capsaicin-evoked TRPV1 current (I-V ramp) in HEK cells transfected with TRPV1-pHluorin; format: cell-based; conditions: capsaicin 100 nM
DRG neurons from WT mice = assay: Current-clamp recording of DRG neurons from WT mice exposed to capsaicin; format: cell-based, mouse; conditions: capsaicin 100 nM
Method: as §1

TRPV1-pHluorin [5] = biological target: T1, TRPV1-pHluorin (Mus musculus, UniProt Q704Y3); assay: Capsaicin dose-response by calcium imaging on DRG neurons from TRPV1-pHluorin mice; format: cell-based; conditions: read-out: EC50 of dose-response curve evoked by capsaicin, room temperature (22° C.), n=28
T1 construct: fused on or other part: superecliptic pHluorin (ecliptic GFP, EcGFP) inserted into the extracellular turret between His and Lys (615/616; H614/K615 elsewhere in the source)

TRPV1 wild type = biological target: T2, TRPV1 wild type (Homo sapiens, UniProt Q8NER1); assay: Capsaicin-evoked TRPV1 current (I-V ramp) in HEK cells transfected with TRPV1 wild type; format: cell-based; conditions: capsaicin 100 nM, TRPV1 WT
T2 construct: expressed in transfected cells; host or cells: HEK cells

ALK [6] = biological target: T3, ALK (Mus musculus, UniProt P97793); assay: Thermal hyperalgesia induced by intrathecal ALKAL2; format: in vivo
T3 construct: from tissue; host or cells: living mice, spinal dorsal horn
Method: (§2) Intrathecal injections were performed in conscious mice. Briefly, mice were manually restrained, the dorsal fur of each mouse was shaved, the spinal column was arched, and a 30-gauge needle attached in a PE20 Polyethylene tube to a 25 μl Hamilton micro syringe (Hamilton, Birmingham, UK) was inserted into the subarachnoid space between the L4 and L5 vertebrae. Accurate positioning of the needle tip was confirmed by a characteristic tail-flick response of animal when the needle if correctly positioned. Intrathecal injections of 10 μl were delivered over a period of 5 seconds.
Three trials for each mouse were performed.

ALK [7] = biological target: T3, ALK; assay: pALK immunostaining in the spinal dorsal horn after intrathecal ALKAL2; format: in vivo; conditions: 30 min following intrathecal ALKAL2 injection
Method: as §2

[8] = biological target: anaplastic lymphoma kinase (ALK) receptor, endogenous on mouse DRG neurons and in the mouse spinal dorsal horn (mouse) (UniProt P97793); assay: cell-based or functional assay
[9] = ALKAL2 co-culture in the presence of Lorlatinib 1 μM
[10] = ALKAL2 plasmid co-culture 16 h, small DRG neurons
[11] = ALKAL2 transfected condition vs control

T3 sequence (P97793 19-1621): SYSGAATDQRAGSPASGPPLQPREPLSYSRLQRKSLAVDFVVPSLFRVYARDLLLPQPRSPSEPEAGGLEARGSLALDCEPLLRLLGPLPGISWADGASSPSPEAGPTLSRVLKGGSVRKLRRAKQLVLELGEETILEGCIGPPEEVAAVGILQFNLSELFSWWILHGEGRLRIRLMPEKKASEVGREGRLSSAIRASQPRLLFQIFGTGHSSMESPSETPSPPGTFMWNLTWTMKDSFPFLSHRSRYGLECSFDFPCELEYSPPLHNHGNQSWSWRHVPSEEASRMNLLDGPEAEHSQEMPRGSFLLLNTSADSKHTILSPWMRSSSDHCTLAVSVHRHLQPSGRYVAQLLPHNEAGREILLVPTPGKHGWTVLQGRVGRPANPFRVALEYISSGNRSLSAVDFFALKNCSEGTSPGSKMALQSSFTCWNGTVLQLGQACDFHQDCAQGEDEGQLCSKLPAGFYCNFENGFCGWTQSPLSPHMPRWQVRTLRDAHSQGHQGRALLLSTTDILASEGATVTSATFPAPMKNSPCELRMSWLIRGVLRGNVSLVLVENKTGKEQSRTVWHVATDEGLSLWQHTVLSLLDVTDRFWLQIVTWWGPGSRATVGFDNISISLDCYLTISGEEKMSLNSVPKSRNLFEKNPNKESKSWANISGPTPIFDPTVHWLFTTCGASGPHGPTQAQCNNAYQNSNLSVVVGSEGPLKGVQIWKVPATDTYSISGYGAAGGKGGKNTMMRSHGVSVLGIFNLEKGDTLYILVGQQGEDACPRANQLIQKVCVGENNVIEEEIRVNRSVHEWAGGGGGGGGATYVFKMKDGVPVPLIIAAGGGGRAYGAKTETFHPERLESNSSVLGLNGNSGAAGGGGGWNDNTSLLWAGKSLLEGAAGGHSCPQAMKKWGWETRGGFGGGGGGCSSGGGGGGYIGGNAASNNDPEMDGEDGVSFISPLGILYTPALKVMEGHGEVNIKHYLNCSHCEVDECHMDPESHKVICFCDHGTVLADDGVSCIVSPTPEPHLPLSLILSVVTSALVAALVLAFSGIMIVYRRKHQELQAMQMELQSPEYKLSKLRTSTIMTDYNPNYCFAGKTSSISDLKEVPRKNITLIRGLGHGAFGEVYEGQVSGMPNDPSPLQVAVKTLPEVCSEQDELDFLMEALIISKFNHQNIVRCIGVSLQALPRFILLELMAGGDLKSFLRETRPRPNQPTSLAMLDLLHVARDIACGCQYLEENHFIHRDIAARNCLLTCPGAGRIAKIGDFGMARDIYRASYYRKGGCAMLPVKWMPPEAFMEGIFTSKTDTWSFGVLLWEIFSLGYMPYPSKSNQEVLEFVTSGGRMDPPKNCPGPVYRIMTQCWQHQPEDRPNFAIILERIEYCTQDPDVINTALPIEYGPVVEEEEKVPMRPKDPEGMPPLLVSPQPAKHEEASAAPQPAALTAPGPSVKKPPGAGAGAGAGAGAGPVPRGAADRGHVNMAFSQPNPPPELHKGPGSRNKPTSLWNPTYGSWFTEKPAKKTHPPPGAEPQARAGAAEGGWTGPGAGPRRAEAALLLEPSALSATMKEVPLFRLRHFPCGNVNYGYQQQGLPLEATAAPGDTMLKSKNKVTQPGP
Chain of anaplastic lymphoma kinase (ALK) receptor, endogenous on mouse DRG neurons and in the mouse spinal dorsal horn (mouse) (P97793 19-1621): as above
T2 sequence (Q8NER1 whole entry, species assumed): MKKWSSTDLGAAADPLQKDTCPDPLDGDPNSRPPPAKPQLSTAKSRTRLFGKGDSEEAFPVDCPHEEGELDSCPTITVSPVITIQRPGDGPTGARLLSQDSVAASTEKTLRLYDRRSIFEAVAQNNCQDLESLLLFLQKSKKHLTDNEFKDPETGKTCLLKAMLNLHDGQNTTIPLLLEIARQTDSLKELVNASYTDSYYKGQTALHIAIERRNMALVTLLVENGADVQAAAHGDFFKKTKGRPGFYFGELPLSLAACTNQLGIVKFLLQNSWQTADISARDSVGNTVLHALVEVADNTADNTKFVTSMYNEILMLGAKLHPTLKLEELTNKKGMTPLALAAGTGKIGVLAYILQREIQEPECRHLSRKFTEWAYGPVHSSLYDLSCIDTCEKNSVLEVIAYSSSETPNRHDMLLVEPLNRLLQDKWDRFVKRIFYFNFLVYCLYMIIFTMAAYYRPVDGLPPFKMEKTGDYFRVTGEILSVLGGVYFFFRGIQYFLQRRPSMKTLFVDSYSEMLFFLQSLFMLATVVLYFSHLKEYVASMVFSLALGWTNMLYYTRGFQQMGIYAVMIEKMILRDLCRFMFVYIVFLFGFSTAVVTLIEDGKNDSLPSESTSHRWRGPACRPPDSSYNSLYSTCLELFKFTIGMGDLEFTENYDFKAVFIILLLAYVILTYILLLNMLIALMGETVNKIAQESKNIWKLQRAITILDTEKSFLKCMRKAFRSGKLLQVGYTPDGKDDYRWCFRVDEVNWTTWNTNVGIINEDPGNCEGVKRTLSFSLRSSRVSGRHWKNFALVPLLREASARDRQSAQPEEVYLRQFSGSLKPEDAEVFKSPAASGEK
T1 sequence (Q704Y3 1-615 limits assumed): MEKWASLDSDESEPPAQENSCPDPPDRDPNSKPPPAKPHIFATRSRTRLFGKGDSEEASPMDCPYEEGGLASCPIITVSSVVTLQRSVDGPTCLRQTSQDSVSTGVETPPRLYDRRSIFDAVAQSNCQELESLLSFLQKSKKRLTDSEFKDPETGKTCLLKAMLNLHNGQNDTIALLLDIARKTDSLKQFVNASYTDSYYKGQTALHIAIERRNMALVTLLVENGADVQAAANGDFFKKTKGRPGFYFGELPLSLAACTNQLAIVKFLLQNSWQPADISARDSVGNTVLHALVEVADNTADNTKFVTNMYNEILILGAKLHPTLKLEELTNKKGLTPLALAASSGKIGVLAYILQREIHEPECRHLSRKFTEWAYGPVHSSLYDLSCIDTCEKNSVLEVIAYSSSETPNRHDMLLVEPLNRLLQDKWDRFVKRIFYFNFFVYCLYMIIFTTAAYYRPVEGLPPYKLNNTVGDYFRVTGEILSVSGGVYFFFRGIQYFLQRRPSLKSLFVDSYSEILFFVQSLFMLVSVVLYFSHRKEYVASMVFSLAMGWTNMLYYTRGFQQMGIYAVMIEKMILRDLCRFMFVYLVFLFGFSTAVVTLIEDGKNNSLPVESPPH
T1 sequence (Q704Y3 616-839 limits assumed): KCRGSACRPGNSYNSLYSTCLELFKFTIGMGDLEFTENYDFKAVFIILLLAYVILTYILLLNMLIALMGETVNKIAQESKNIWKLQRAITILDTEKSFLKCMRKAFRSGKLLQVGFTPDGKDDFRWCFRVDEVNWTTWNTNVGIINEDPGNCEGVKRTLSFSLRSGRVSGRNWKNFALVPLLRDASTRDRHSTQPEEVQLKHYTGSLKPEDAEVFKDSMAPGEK

Molecule: Cc1cc(Nc2ncc(Cl)c(Nc3ccccc3S(=O)(=O)C(C)C)n2)c(OC(C)C)cc1C1CCNCC1 [Ceritinib]
- effect on pain in NSCL cancer patients (ALK [1]): could reduce chest, arm and shoulder pain

Molecule: C[C@H]1Oc2cc(cnc2N)-c2c(nn(C)c2C#N)CN(C)C(=O)c2ccc(F)cc21 [Lorlatinib]
- neurites per neuron [2, 9]: 8.7±1.9
- number of branch points per neuron [2, 9]: 3.6±0.5
- total neurite length per neuron [2, 9]: 83±8.8 μm
- action potential (AP) threshold (small DRG neurons; ALKAL2+Lorlatinib group, n=9): −31.59±1.76 mV
- resting membrane potential (RMP) (small DRG neurons; ALKAL2+Lorlatinib group): −54.5±1.53 mV

Molecule: COc1cc(CNC(=O)CCCC/C=C/C(C)C)ccc1O [capsaicin]
- resting membrane potential after application of capsaicin [3]: −38.01±2.17 mV
- AP frequency after capsaicin ([3]; 400 pA current injection): 17.22±0.84 Hz
- peak inward current at −100 mV (TRPV1-pHluorin [4]): −7.33±2.91 pA/pF
- peak outward current at +100 mV (TRPV1-pHluorin [4]): 61.36±11.97 pA/pF
- resting membrane potential after application of capsaicin (DRG neurons from WT mice): −36.61±1.83 mV
- AP frequency after capsaicin (DRG neurons from WT mice; 400 pA current injection): 18.56±2.44 Hz
- EC50 (TRPV1-pHluorin [5]): 1.06 ± 0.09 µM
- peak inward current at −100 mV (TRPV1 wild type): −10.2±1.63 pA/pF
- peak outward current at +100 mV (TRPV1 wild type): 62.82±11.72 pA/pF

B1: ALKAL2: ligand of the ALK receptor; recombinant mouse ALKAL2 or secreted by HEK cells transfected with ALKAL2 plasmid (protein)
chain: QSRGPADRQTLLRLLVELVQELKKFHIGDSKRLQLLGESDFALGRREATDYGADQEEQRVEIVPRDLRMKDKFLKHLTGPLYFSPKCSKHFHRLYHNTRDCTIPAYYKRCARLLTRLAVSPMCMER
- number of branch points per neuron [2, 10]: 8.9±0.9
- total neurite length per neuron [2, 10]: 267.1±2.2 μm
- total neurites per neuron [2, 10]: 18.6±1.2
- increase in the total neurite length per neuron [2, 11]: five-fold increase
- increase in the total number of neurites (primary and secondary branches) and branching points [2, 11]: two-fold increase
- time after administration at which thermal hypersensitivity is back to baseline (ALK [6]; intrathecal ALKAL2, n=5 each group): 72 h
- thermal hyperalgesia in naïve mice (ALK [6]; recombinant ALKAL2 intrathecal, 0.01, 0.1, 1 uM): induced thermal hyperalgesia lasting several hours in a dose-dependent manner
- action potential (AP) threshold (small DRG neurons; ALKAL2 group, n=11): −40.57±2.88 mV
- resting membrane potential (RMP) (small DRG neurons; ALKAL2 group): −55.15±2.21 mV
- AP frequency evoked by ascending steps of injected current (small DRG neurons; recombinant ALKAL2 for 16 h (10 nM)): pronounced increase
- pALK in the spinal dorsal horn (ALK [7]): increase in pALK

B2: ALKAL2 secreted by HEK 293 tsA-201 cells transfected with ALKAL2 plasmid (Genomics, ABIN3292379) (ligand, UniProt Q6UX46 25-152, looked up, species assumed)
ALK and LTK ligand 2: GAEPREPADGQALLRLVVELVQELRKHHSAEHKGLQLLGRDCALGRAEAAGLGPSPEQRVEIVPRDLRMKDKFLKHLTGPLYFSPKCSKHFHRLYHNTRDCTIPAYYKRCARLLTRLAVSPVCMEDKQ
- total neurite length per neuron [8]: 267 µm
- total neurite length per neuron, transwell co-culture [8]: 5 fold
- total neurites in small (<20 µm) DRG neurons (neurites per neuron) [8]: 18.6
